From ChEMBL document CHEMBL1137672, “Synthesis and pharmacological evaluation of 2-substituted benzo[b]thiophenes as anti-inflammatory and analgesic agents” (Eur J Med Chem, 2009)

Tests used:
Rattus norvegicus [1] = experiment: Antiinflammatory against carrageenan-induced paw edema in Sprague-Dawley rat assessed as remaining paw edema at 25 mg/kg, sc administered 30 mins before carrageenan challenge measured after 2 hrs by plethysmometer relative to control; assay type: functional; conditions: route subcutaneous
Rattus norvegicus [2] = experiment: Hepatotoxicity in Sprague-Dawley rat assessed as serum aspartate aminotransferase level at 50 mg/kg, po daily for 1 week by Reitman-Frankel colorimetric procedure; assay type: toxicity, organism-based; design: dose 50 mg/kg, route oral; conditions: in vivo, 168 h
Rattus norvegicus [3] = experiment: Antiinflammatory against carrageenan-induced paw edema in Sprague-Dawley rat assessed as remaining paw edema at 25 mg/kg, sc administered 30 mins before carrageenan challenge measured after 1 hr by plethysmometer relative to control; assay type: functional; conditions: route subcutaneous
Rattus norvegicus [4] = experiment: Gastrointestinal toxicity in Sprague-Dawley rat assessed as gastric mucosal lesion at 50 mg/kg, po daily for 1 week; assay type: organism-based, Gastric mucosa; design: dose 50 mg/kg, route oral; conditions: in vivo, 168 h
Rattus norvegicus [5] = experiment: Antiinflammatory against carrageenan-induced paw edema in Sprague-Dawley rat assessed as remaining paw edema at 50 mg/kg, sc administered 30 mins before carrageenan challenge measured after 2 hrs by plethysmometer relative to control; assay type: functional; conditions: route subcutaneous
Mus musculus [6] = experiment: Analgesic activity in Swiss albino mouse assessed as inhibition of acetic acid-induced abdominal constriction at 25 mg/kg, sc administered 30 mins prior to acetic acid challenge measured for 30 mins relative to control; assay type: functional; conditions: Abdomen, route subcutaneous
Rattus norvegicus [7] = experiment: Analgesic activity in Sprague-Dawley rat assessed as change in latency time required to elicit jumping or hind paw licking at 25 mg/kg, sc administered 1 hr prior testing measured after 2 hrs of post dose by hot plate method relative to basal level; assay type: functional; conditions: route subcutaneous
Rattus norvegicus [8] = experiment: Analgesic activity in Sprague-Dawley rat assessed as change in latency time required to elicit jumping or hind paw licking at 25 mg/kg, sc administered 1 hr prior testing measured after 1 hr of post dose by hot plate method relative to basal level; assay type: functional; conditions: route subcutaneous
Rattus norvegicus [9] = experiment: Hepatotoxicity in Sprague-Dawley rat assessed as serum alanine aminotransferase level at 50 mg/kg, po daily for 1 week by Reitman-Frankel colorimetric procedure; assay type: toxicity, organism-based; design: dose 50 mg/kg, route oral; conditions: in vivo, 168 h
Rattus norvegicus [10] = experiment: Antiinflammatory against carrageenan-induced paw edema in Sprague-Dawley rat assessed as remaining paw edema at 50 mg/kg, sc administered 30 mins before carrageenan challenge measured after 3 hrs by plethysmometer relative to control; assay type: functional; conditions: route subcutaneous
Rattus norvegicus [11] = experiment: Antiinflammatory against carrageenan-induced paw edema in Sprague-Dawley rat assessed as remaining paw edema at 25 mg/kg, sc administered 30 mins before carrageenan challenge measured after 3 hrs by plethysmometer relative to control; assay type: functional; conditions: route subcutaneous
Rattus norvegicus [12] = experiment: Antiinflammatory against carrageenan-induced paw edema in Sprague-Dawley rat assessed as remaining paw edema at 50 mg/kg, sc administered 30 mins before carrageenan challenge measured after 4 hrs by plethysmometer relative to control; assay type: functional; conditions: route subcutaneous
Rattus norvegicus [13] = experiment: Antiinflammatory against carrageenan-induced paw edema in Sprague-Dawley rat assessed as remaining paw edema at 25 mg/kg, sc administered 30 mins before carrageenan challenge measured after 4 hrs by plethysmometer relative to control; assay type: functional; conditions: route subcutaneous
Rattus norvegicus [14] = experiment: Antiinflammatory against carrageenan-induced paw edema in Sprague-Dawley rat assessed as remaining paw edema at 50 mg/kg, sc administered 30 mins before carrageenan challenge measured after 1 hr by plethysmometer relative to control; assay type: functional; conditions: route subcutaneous
Rattus norvegicus [15] = experiment: Analgesic activity in Sprague-Dawley rat assessed as change in latency time required to elicit jumping or hind paw licking at 10 mg/kg, sc administered 1 hr prior testing measured after 1 hr of post dose by hot plate method relative to basal level; assay type: functional; conditions: route subcutaneous
Rattus norvegicus [16] = experiment: Antiinflammatory against carrageenan-induced paw edema in Sprague-Dawley rat assessed as remaining paw edema at 10 mg/kg, sc administered 30 mins before carrageenan challenge measured after 1 hr by plethysmometer relative to control; assay type: functional; conditions: route subcutaneous
Rattus norvegicus [17] = experiment: Antiinflammatory against carrageenan-induced paw edema in Sprague-Dawley rat assessed as remaining paw edema at 10 mg/kg, sc administered 30 mins before carrageenan challenge measured after 2 hrs by plethysmometer relative to control; assay type: functional; conditions: route subcutaneous
Mus musculus [18] = experiment: Analgesic activity in Swiss albino mouse assessed as inhibition of acetic acid-induced abdominal constriction at 10 mg/kg, sc administered 30 mins prior to acetic acid challenge measured for 30 mins relative to control; assay type: functional; conditions: Abdomen, route subcutaneous
Rattus norvegicus [19] = experiment: Analgesic activity in Sprague-Dawley rat assessed as change in latency time required to elicit jumping or hind paw licking at 10 mg/kg, sc administered 1 hr prior testing measured after 2 hrs of post dose by hot plate method relative to basal level; assay type: functional; conditions: route subcutaneous
Rattus norvegicus [20] = experiment: Antiinflammatory against carrageenan-induced paw edema in Sprague-Dawley rat assessed as remaining paw edema at 10 mg/kg, sc administered 30 mins before carrageenan challenge measured after 3 hrs by plethysmometer relative to control; assay type: functional; conditions: route subcutaneous
Rattus norvegicus [21] = experiment: Antiinflammatory against carrageenan-induced paw edema in Sprague-Dawley rat assessed as remaining paw edema at 10 mg/kg, sc administered 30 mins before carrageenan challenge measured after 4 hrs by plethysmometer relative to control; assay type: functional; conditions: route subcutaneous
Rattus norvegicus [22] = experiment: Analgesic activity in Sprague-Dawley rat assessed as latency time required to elicit jumping or hind paw licking at 25 mg/kg, sc administered 1 hr prior testing measured after 2 hrs of post dose by hot plate method; assay type: functional; conditions: route subcutaneous

| Compound | Activity (Rattus norvegicus [1]) [%] | Activity (Rattus norvegicus [2]) | Activity (Rattus norvegicus [3]) [%] | Activity (Rattus norvegicus [4]) | Activity (Rattus norvegicus [5]) [%] | inhibition in vivo at 25 mg/kg (Mus musculus [6]) [%] | Activity (Rattus norvegicus [7]) [%] | Activity (Rattus norvegicus [8]) [%] | Activity (Rattus norvegicus [9]) | Activity (Rattus norvegicus [10]) [%] | Activity (Rattus norvegicus [11]) [%] | Activity (Rattus norvegicus [12]) [%] | Activity (Rattus norvegicus [13]) [%] | Activity (Rattus norvegicus [14]) [%] | Activity (Rattus norvegicus [22]) [s] | further results |
| --- | --- | --- | --- | --- | --- | --- | --- | --- | --- | --- | --- | --- | --- | --- | --- | --- |
| Cc1ccc(/C=N/NC(=O)c2cc3cc([N+](=O)[O-])ccc3s2)o1 | 77.2 | Non-toxic | 55.9 | Non-toxic | 41.6 | -43.1 | 22.39 | 19.8 | Non-toxic | 41.3 | 92.2 | 40.7 | 92 | 37.5 |  |  |
| CN1C(C(=O)Nc2ccccn2)=C(O)c2ccccc2S1(=O)=O [PIROXICAM] |  |  |  |  |  |  |  |  |  |  |  |  |  |  |  | Activity (Rattus norvegicus [15]): 21.4%; Activity (Rattus norvegicus [16]): 35.9%; Activity (Rattus norvegicus [17]): 42.9%; inhibition in vivo at 10 mg/kg (Mus musculus [18]): -56.9%; Activity (Rattus norvegicus [19]): 8.3%; Activity (Rattus norvegicus [20]): 51.4%; Activity (Rattus norvegicus [21]): 51.4% |
| NNC(=O)c1cc2cc([N+](=O)[O-])ccc2s1 | 51.9 | Non-toxic | 49.4 | Non-toxic | 42.2 | -88.2 | 31.6 | 24.7 | Non-toxic | 46.3 | 55.9 | 51.3 | 55.9 | 38.2 |  |  |
| NNC(=O)Nc1cc2cc([N+](=O)[O-])ccc2s1 | 71.2 | Non-toxic | 59.7 | Non-toxic | 45.9 | -43.4 | 7.5 | 19.4 | Non-toxic | 54.3 | 79 | 56.4 | 80 | 45.9 |  |  |
| O=C(N/N=C/c1c[nH]c2ccccc12)c1cc2cc([N+](=O)[O-])ccc2s1 | 89.1 | Non-toxic | 63.2 | Non-toxic | 46.5 | 16.9 |  | 16.6 | Non-toxic | 46.6 | 90.1 | 49.6 | 90 | 36.9 | 14.72 |  |
| O=C(NNC(=S)Nc1ccccc1)c1cc2cc([N+](=O)[O-])ccc2s1 | 48.1 | Non-toxic | 40 | Non-toxic | 42.7 | -63.4 |  | 36.5 | Non-toxic | 45.3 | 54.6 | 46.2 | 58.7 | 35.7 | 16.66 |  |
